Values quoted from earlier work, collected in Sander's compilation of Henry's law constants (doi:10.1039/p29940001777).

Test: Henry solubility constant Hcp at 298.15 K (mol/(m3 Pa))
Conditions: reference: Abraham et al. (1994a); cited value

SMILES	Henry solubility constant Hcp
Nc1ccccc1Cl [1-amino-2-chlorobenzene]	1.6
Nc1cccc(Cl)c1 [1-amino-3-chlorobenzene]	7.5
Nc1ccc(Cl)cc1 [1-amino-4-chlorobenzene]	8.6
Cc1cccc(O)c1C [1-hydroxy-2,3-dimethylbenzene]	13
Cc1ccc(O)c(C)c1 [1-hydroxy-2,4-dimethylbenzene]	10
Cc1ccc(C)c(O)c1 [1-hydroxy-2,5-dimethylbenzene]	8.8
COc1ccccc1O [1-hydroxy-2-methoxybenzene]	5
Cc1cc(C)cc(O)c1 [1-hydroxy-3,5-dimethylbenzene]	16
CCc1cccc(O)c1 [1-hydroxy-3-ethylbenzene]	16
COc1cccc(O)c1 [1-hydroxy-3-methoxybenzene]	170
CCc1ccc(O)cc1 [1-hydroxy-4-ethylbenzene]	13
CCCc1ccc(O)cc1 [1-hydroxy-4-propylbenzene]	8.6
Nc1cccc2ccccc12 [1-naphthylamine]	88
Cc1cccc(C)c1N [2,6-dimethylbenzenamine]	2.7
CCOCCO [2-ethoxyethanol]	33
Oc1ccccc1Cl [2-hydroxychlorobenzene]	0.88
Oc1ccccc1F [2-hydroxyfluorobenzene]	3.1
Oc1ccccc1I [2-iodophenol]	14
Cc1ccccc1N [2-methylbenzenamine]	4.6
Nc1ccc2ccccc2c1 [2-naphthylamine]	120
Nc1ccccc1[N+](=O)[O-] [2-nitrobenzenamine]	100
O=[N+]([O-])c1ccccc1O [2-nitrophenol]	0.92
OCCc1ccccc1 [2-phenylethanol]	39
N#Cc1cccnc1 [3-cyanopyridine]	36
Nc1cccc([N+](=O)[O-])c1 [3-nitrobenzenamine]	1200
Cc1cc(O)ccc1Cl [4-chloro-3-methylphenol]	39
N#Cc1ccncc1 [4-cyanopyridine]	11
Nc1ccc([N+](=O)[O-])cc1 [4-nitrobenzenamine]	14000
CNc1ccccc1 [(methylamino)-benzene]	1.1
CCOP(=O)(OCC)OCC [triethylphosphate]	140

Continued, values first:

Henry solubility constant Hcp	SMILES
460	CC(=O)c1cccnc1 [3-acetylpyridine]
65	O=Cc1cccnc1 [3-formylpyridine]
90	COc1cccc(N)c1 [3-methoxy-benzenamine]
48	OCCCc1ccccc1 [3-phenyl-1-propanol]
1.1	CC(=O)c1ccc(C)cc1 [4'-methylacetophenone]
160	CC(=O)c1ccncc1 [4-acetylpyridine]
56	O=Cc1ccncc1 [4-formylpyridine]
29	OCc1ccccc1 [(hydroxymethyl)-benzene]
0.24	CN1CCCCC1 [N-methylpiperidine]
47000	NC(=O)c1ccccc1 [benzamide]
0.5	N#Cc1ccccc1 [benzenenitrile]
6.4	c1ccc2ncccc2c1 [benzo[b]pyridine]
0.19	CCOC(=O)c1ccccc1 [ethyl benzoate]
0.31	COC(=O)c1ccccc1 [methyl benzoate]
